Converted amounts (≈) assume the structure as drawn. Read-outs that look alike come from different tables or passages of the source.
What was measured:
[1] = test system: SARS-CoV-2, isolate USA-WA1/2020; test: microbe, parasite or virus in culture; assay type: cell-based; details: HeLa-ACE2 SARS-CoV-2 antiviral effect without P-gp inhibitor; for perc_max_measured: maximum measured response of dose series; for perc_min_measured: minimum measured response of dose series; for EC50: read-out: ec50; for EC90: read-out: ec90
[2] = Hepatic microsomal stability, HLM; assay type: in vitro ADME, human; details: In vitro human liver microsomal stability; for perc_remaining_no_cofactor: no cofactor
[3] = Hepatic microsomal stability, MLM; assay type: in vitro ADME; details: In vitro mouse liver microsomal stability; for perc_remaining_no_cofactor: no cofactor
[4] = test system: HeLa-ACE2 cells; details: for perc_max_measured: highest measured response of the dose series; for perc_min_measured: lowest measured response of the dose series
[5] = LogD; details: pH 7.4; In vitro LogD
[6] = in vitro; details: human, hela-ace2 cells, 50.0
[7] = In vitro kinetic solubility; details: In vitro kinetic solubility, ph 7.4
[8] = Permeability Papp (AB) MDR1/MDCKII; details: In vitro MDR1-MDCKII permeability; for papp_a_to_b_mean: A to B; for perc_recovery_a_to_b_mean: recovery A to B
[9] = protocol HeLa-ACE2 cytotoxicity

Row | SMILES | perc_max_measured [1] [%] | perc_min_measured [1] [%] | EC50 [1] [µM] | EC90 [1] [µM] | clint [2] [µL/min/mg] | perc_remaining [2] [%] | t_half [2] [min] | perc_remaining_no_cofactor [2] [%] | clint [3] [µL/min/mg] | perc_remaining [3] [%] | t_half [3] [min] | perc_remaining_no_cofactor [3] [%] | CC50 [4, 9] [µM] | cc10 [4, 9] [µM] | perc_max_measured [4, 9] [%] | logd [5] | CC50 at 24 h [6] [µM] | solubility_mean [7] [µM] | papp_a_to_b_mean ([8]; no inhibitor) [×10⁻⁶ cm/s] | perc_recovery_a_to_b_mean ([8]; no inhibitor) [%] | other results
1 | CNC(=O)c1cccc(-c2cc3c(N[C@H](c4ccc5c(c4)S(=O)(=O)CCC5)C(C)C)ncnc3[nH]2)c1 (single isomer, unassigned) [ASAP-0012338] | 112.086 | 84.591 | > 20 | > 20 | 746.0 | 0.0 | 2.2 | 99.0 | 197.0 | 4.0 | 8.5 | 106.0 | > 20 | > 20.0 | 103.266 | 3.8 | > 20 | 13 (≈ 6.55 µg/mL) | 0.502 | 61.5 | perc_min_measured [4, 9]: 80.243%
2 | CC(C)[C@@H](Nc1ncnc2[nH]c(-c3cncc(S(C)(=O)=O)c3)cc12)c1ccc2c(c1)S(=O)(=O)CCC2 [ASAP-0012320] | 119.816 | 96.629 | > 20 | > 20 | 635.0 | 1.0 | 2.6 | 104.0 | 272.0 | 1.0 | 6.1 | 112.0 |  |  |  | 3.1 | > 20 | 31 (≈ 16.3 µg/mL) | 0.491 | 66.6 | CC50 ([4]; HeLa-ACE2 cytotoxicity): > 20 µM; cc10 ([4]; HeLa-ACE2 cytotoxicity): > 20.0 µM; perc_max_measured ([4]; HeLa-ACE2 cytotoxicity): 98.548%; perc_min_measured ([4]; HeLa-ACE2 cytotoxicity): 93.918%
3 | CC(C)[C@@H](Nc1ncnc2[nH]cc(C(=O)NC3CC3)c12)c1ccc2c(c1)S(=O)(=O)CCC2 [ASAP-0011207] | 103.36 | 37.723 | 14.4 | > 20 | 409.0 | 0.0 | 4.1 | 111.0 | 1740.0 | 0.0 | 1.0 | 102.0 |  |  |  | 3.2 | > 20 | 216 (≈ 98 µg/mL) |  |  | CC50 ([4]; HeLa-ACE2 cytotoxicity): > 20 µM; cc10 ([4]; HeLa-ACE2 cytotoxicity): > 20.0 µM; perc_max_measured ([4]; HeLa-ACE2 cytotoxicity): 109.458%; perc_min_measured ([4]; HeLa-ACE2 cytotoxicity): 97.44%; papp_a_to_b_mean ([8]; mean): 2.97 ×10⁻⁶ cm/s; perc_recovery_a_to_b_mean ([8]; mean): 85.8%
4 | CNC(=O)c1cccc(-c2cc3c(N[C@@H](c4ccc5c(c4)S(=O)(=O)CCC5)C(C)C)ncnc3[nH]2)c1 [ASAP-0012344] | 108.746 | 56.34 | > 20 | > 20 | 455.0 | 0.0 | 3.7 | 93.0 | 882.0 | 1.0 | 1.9 | 101.0 | > 20 | > 20.0 | 109.077 | 3.7 | > 20 | 15 (≈ 7.55 µg/mL) | 0.627 | 67.1 | perc_min_measured [4, 9]: 84.376%

— article doi:10.1101/2024.08.19.608619, “Discovery of potent SARS-CoV-2 nsp3 macrodomain inhibitors uncovers lack of translation to cellular antiviral response” (bioRxiv, 2024)
